# Measured values from ChEMBL document CHEMBL1134795 (J Med Chem, 2001).
# System: not listed separately
# Assay: terminal elimination half-life for the compound was evaluated after oral administration of a dose of 1 mg/kg in a group of eight conscious dogs
# Format: ADME, organism-based, Canis lupus familiaris
# Set-up: dose 1 mg/kg, route oral
# Conditions: dog, in vivo
row,half-life,Structure (SMILES)
1,594 min,CCOC(=O)C[C@H](NC(=O)CN1C(=O)N[C@@](C)(c2ccc(C(=N)N)cc2)C1=O)c1ccccc1.O=C(O)/C=C\C(=O)O [CARAFIBAN MALEATE]

# Biological target: T1, Integrin alpha-IIb/beta-3 (Homo sapiens, UniProt P05106+P08514)
# T1 sequence (P05106 27-788 limits assumed): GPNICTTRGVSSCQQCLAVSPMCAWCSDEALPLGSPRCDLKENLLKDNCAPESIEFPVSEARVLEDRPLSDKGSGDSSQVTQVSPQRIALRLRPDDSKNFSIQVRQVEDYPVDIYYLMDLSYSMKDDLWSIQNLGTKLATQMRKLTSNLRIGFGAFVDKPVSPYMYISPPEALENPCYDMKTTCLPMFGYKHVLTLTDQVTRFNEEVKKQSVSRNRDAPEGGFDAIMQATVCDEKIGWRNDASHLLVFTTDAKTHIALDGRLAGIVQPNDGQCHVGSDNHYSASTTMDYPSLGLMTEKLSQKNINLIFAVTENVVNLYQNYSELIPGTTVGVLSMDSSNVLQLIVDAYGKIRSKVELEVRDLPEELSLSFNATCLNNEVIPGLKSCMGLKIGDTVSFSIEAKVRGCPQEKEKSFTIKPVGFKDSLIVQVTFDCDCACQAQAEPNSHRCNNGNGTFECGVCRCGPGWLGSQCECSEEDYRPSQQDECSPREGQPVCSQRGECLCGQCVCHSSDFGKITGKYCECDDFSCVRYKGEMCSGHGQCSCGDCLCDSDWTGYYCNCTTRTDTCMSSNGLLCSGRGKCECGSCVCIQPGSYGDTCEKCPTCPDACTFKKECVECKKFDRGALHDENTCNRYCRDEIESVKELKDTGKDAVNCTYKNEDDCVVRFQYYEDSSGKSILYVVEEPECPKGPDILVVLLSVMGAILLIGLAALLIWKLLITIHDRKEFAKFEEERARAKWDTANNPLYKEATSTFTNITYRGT
# T1 sequence (P08514 32-887 limits assumed): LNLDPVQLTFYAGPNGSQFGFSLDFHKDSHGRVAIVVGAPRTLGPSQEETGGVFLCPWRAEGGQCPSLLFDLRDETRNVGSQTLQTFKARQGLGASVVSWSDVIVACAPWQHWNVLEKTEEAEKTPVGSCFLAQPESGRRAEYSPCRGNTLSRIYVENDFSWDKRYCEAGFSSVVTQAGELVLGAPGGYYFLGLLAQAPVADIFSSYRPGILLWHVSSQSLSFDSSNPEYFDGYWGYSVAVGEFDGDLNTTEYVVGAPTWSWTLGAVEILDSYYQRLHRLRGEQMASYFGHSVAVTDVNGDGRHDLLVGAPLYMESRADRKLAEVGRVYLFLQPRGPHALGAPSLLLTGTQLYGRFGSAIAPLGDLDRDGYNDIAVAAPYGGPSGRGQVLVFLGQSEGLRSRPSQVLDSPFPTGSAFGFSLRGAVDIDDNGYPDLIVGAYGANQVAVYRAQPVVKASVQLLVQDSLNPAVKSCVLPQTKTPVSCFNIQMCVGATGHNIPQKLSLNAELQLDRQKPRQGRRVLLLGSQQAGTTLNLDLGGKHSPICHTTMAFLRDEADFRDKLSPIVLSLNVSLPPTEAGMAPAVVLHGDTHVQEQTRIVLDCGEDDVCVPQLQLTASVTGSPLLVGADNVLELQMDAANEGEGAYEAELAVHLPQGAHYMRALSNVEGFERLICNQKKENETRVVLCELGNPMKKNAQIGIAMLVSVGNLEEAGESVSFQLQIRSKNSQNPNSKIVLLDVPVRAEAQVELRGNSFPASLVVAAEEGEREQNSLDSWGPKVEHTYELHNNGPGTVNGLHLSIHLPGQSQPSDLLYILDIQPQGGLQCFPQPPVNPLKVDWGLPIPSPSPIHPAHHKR
# T1 sequence (P08514 891-1039 limits assumed): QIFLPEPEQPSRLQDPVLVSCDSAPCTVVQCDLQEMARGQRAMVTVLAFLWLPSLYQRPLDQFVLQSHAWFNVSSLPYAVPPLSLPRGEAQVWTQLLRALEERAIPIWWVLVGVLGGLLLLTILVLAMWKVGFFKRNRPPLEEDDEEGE
# Assay: Inhibition of 125 I-fibrinogen binding to ADP-activated gel filtered human platelets
# Conditions: not given
row,Ki,Structure (SMILES)
1,120 nM,N=C(N)NCCC[C@@H]1NC(=O)N(CC(=O)N[C@@H](CC(=O)O)C(=O)N[C@H](C(=O)O)c2ccccc2)C1=O

# Species on record: Homo sapiens
# Assay: Inhibition of human platelet (isolated from PRP) aggregation
# Format: functional
# Conditions: not given
row,IC50,Structure (SMILES)
1,40 nM,CC1(c2ccc(C(=N)N)cc2)NC(=O)N(CC(=O)N[C@@H](CC(=O)O)C(=O)N[C@H](C(=O)O)c2ccccc2)C1=O (stereo in doubt; 16)
2,800 nM,CC1(c2ccc(C(=N)N)cc2)NC(=O)N(CC(=O)N[C@@H](CC(=O)O)C(=O)N[C@H](C(=O)O)c2ccccc2)C1=O (stereo in doubt; 17)

# Same assay, conditions: Homo sapiens
row,Structure (SMILES),IC50
1,CC(C)[C@H](NC(=O)[C@H](CC(=O)O)NC(=O)CN1C(=O)N[C@@H](CCCN=C(N)N)C1=O)C(=O)O,1000 nM
2,CC(C)C[C@H](NC(=O)[C@H](CC(=O)O)NC(=O)CN1C(=O)N[C@@H](CCCN=C(N)N)C1=O)C(=O)O,3000 nM
3,COC(=O)[C@@H](NC(=O)[C@H](CC(=O)O)NC(=O)CN1C(=O)NC(C)(c2ccc(C(=N)N)cc2)C1=O)c1ccccc1 (stereo partly drawn),70 nM
4,N=C(N)NCCC[C@@H]1NC(=O)N(CC(=O)N[C@@H](CC(=O)O)C(=O)N[C@H](C(=O)O)C2CCCCC2)C1=O,1500 nM
5,CC1(c2ccc(C(=N)N)cc2)NC(=O)N(CC(=O)N[C@@H](CC(=O)O)C(=O)NC2C3CC4CC(C3)CC2C4)C1=O (stereo partly drawn),25 nM
6,CCN1C(=O)N(CC(=O)NC(CC(=O)O)c2ccccc2)C(=O)C1(C)c1ccc(C(=N)N)cc1 (stereo not drawn),500 nM
7,CC1(c2ccc(C(=N)N)cc2)NC(=O)N(CC(=O)NCC(NC(=O)OCc2ccccc2)C(=O)O)C1=O (stereo not drawn),300 nM
8,CC1(c2ccc(NC(=N)N)cc2)NC(=O)N(CC(=O)N[C@@H](CC(=O)O)C(=O)N[C@H](C(=O)O)c2ccccc2)C1=O (stereo partly drawn),150 nM
9,CC1(c2ccc(CN)cc2)NC(=O)N(CC(=O)N[C@@H](CC(=O)O)C(=O)N[C@H](C(=O)O)c2ccccc2)C1=O (stereo partly drawn),150 nM
10,N=C(N)NCCC[C@@H]1NC(=O)N(CC(=O)N[C@@H](CC(=O)O)C(=O)N[C@@H](Cc2ccccc2)C(=O)O)C1=O,10000 nM
11,N=C(N)c1ccc(C2(Cc3ccccc3)NC(=O)N(CC(=O)N[C@@H](CC(=O)O)C(=O)N[C@H](C(=O)O)c3ccccc3)C2=O)cc1 (stereo partly drawn),50 nM

# Further lines, results first:
row,IC50,Structure (SMILES)
1,200 nM,N=C(N)c1ccc(CC2NC(=O)N(CC(=O)N[C@@H](CC(=O)O)C(=O)N[C@H](C(=O)O)c3ccccc3)C2=O)cc1 (stereo partly drawn)
2,150 nM,N=C(N)c1ccc(/C=C2/NC(=O)N(CC(=O)N[C@@H](CC(=O)O)C(=O)N[C@H](C(=O)O)c3ccccc3)C2=O)cc1
3,5500 nM,N=C(N)Nc1ccc(CC2NC(=O)N(CC(=O)N[C@@H](CC(=O)O)C(=O)N[C@H](C(=O)O)c3ccccc3)C2=O)cc1 (stereo partly drawn)
4,20 nM,N=C(N)c1ccc(C2(C3CC3)NC(=O)N(CC(=O)N[C@@H](CC(=O)O)C(=O)N[C@H](C(=O)O)c3ccccc3)C2=O)cc1 (stereo partly drawn)
5,200 nM,N=C(N)Nc1ccc(C2NC(=O)N(CC(=O)N[C@@H](CC(=O)O)C(=O)N[C@H](C(=O)O)c3ccccc3)C2=O)cc1 (stereo partly drawn)
6,6000 nM,N=C(N)Nc1cccc(C2NC(=O)N(CC(=O)N[C@@H](CC(=O)O)C(=O)N[C@H](C(=O)O)c3ccccc3)C2=O)c1 (stereo partly drawn)
7,25 nM,CCC1(c2ccc(C(=N)N)cc2)NC(=O)N(CC(=O)N[C@@H](CC(=O)O)C(=O)N[C@H](C(=O)O)c2ccccc2)C1=O (stereo partly drawn)

# Biological target: T1, Integrin alpha-IIb/beta-3
# Assay: Inhibition of 125 I-fibrinogen binding to glycoprotein IIb/IIIa receptor
# Format: protein-complex assay
# Conditions: not given
row,Ki,Structure (SMILES)
1,30 nM,N=C(N)Nc1ccc(C2NC(=O)N(CC(=O)N[C@@H](CC(=O)O)C(=O)N[C@H](C(=O)O)c3ccccc3)C2=O)cc1 (stereo partly drawn)
